Each block holds one compound with its values, some of them ahead of it.
What was measured:
[1] = system: PI3-kinase p110-alpha/p85-alpha (Homo sapiens), P27986+P42336 [E545K]; assay: Selectivity interaction (Adapta Assay) EUB0001632a PIK3CA; format: protein-complex assay; settings: at 10 µM
[2] = molecular target: T1, Serine/threonine-protein kinase D1 (Homo sapiens) (UniProt Q15139); settings: at 10 µM
T1 sequence (whole entry): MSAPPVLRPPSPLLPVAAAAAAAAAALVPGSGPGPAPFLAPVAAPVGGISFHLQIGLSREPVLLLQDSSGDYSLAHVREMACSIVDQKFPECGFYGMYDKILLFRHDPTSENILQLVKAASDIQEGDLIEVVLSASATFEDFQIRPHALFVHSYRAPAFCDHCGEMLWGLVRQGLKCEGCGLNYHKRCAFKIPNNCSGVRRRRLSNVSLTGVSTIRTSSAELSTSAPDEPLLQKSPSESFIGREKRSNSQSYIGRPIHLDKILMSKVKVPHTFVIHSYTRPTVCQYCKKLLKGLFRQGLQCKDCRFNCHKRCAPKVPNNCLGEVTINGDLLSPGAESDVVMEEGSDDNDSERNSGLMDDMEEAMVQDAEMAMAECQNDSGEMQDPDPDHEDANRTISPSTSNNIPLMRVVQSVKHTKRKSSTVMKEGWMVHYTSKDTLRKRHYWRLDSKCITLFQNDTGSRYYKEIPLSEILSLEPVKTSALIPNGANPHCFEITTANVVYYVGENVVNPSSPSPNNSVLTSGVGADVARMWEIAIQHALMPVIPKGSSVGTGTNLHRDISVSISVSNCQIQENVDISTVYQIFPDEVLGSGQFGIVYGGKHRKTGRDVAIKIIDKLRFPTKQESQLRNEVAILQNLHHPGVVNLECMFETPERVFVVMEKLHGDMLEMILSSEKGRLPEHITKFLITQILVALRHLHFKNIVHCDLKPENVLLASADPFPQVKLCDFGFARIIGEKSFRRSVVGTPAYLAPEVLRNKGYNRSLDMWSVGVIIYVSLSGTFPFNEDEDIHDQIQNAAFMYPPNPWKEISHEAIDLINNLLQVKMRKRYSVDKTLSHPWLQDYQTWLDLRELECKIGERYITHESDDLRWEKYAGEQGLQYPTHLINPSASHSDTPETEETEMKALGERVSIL

[3] = molecular target: T2, Serine/threonine-protein kinase Nek11 (Homo sapiens) (UniProt Q8NG66); assay: Selectivity interaction (KinomeScan (DiscoverX)) EUB0000229b NEK11; settings: at 10 µM
T2 sequence (whole entry): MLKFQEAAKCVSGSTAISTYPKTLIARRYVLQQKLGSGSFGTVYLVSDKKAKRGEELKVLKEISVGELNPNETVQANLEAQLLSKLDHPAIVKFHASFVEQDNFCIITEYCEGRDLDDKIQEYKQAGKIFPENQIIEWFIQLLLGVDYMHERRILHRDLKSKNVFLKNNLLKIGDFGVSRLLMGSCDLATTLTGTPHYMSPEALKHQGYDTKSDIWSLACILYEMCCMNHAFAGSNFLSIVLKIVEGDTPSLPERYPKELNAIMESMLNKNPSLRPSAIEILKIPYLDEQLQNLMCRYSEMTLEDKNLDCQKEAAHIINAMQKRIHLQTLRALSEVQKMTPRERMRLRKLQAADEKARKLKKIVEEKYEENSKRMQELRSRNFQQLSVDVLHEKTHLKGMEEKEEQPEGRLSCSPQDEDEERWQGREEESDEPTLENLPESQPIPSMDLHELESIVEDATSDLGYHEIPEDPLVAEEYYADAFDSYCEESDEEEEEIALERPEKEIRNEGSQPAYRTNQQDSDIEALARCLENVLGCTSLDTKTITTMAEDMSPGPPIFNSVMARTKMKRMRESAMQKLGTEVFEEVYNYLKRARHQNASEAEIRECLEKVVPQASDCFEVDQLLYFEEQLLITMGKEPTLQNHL

[4] = molecular target: Serine/threonine-protein kinase pim-1 (Homo sapiens, UniProt P11309); assay: Selectivity interaction (KinomeScan (DiscoverX)) EUB0000045b PIM1
Chain of Serine/threonine-protein kinase pim-1 (P11309 whole entry, looked up): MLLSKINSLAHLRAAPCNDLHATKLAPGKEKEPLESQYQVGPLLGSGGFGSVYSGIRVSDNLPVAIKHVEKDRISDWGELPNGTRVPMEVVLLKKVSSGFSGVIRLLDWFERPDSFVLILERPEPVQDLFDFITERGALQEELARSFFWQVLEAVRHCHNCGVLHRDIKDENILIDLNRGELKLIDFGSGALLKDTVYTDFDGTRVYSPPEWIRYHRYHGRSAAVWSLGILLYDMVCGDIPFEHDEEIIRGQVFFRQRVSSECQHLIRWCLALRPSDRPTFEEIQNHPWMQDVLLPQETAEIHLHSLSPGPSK

[5] = molecular target: T3, TGF-beta receptor type-1 (Homo sapiens) (UniProt P36897); assay: Selectivity interaction (KinomeScan (DiscoverX)) EUB0000618a TGFBR1; settings: at 10 µM
T3 sequence (whole entry): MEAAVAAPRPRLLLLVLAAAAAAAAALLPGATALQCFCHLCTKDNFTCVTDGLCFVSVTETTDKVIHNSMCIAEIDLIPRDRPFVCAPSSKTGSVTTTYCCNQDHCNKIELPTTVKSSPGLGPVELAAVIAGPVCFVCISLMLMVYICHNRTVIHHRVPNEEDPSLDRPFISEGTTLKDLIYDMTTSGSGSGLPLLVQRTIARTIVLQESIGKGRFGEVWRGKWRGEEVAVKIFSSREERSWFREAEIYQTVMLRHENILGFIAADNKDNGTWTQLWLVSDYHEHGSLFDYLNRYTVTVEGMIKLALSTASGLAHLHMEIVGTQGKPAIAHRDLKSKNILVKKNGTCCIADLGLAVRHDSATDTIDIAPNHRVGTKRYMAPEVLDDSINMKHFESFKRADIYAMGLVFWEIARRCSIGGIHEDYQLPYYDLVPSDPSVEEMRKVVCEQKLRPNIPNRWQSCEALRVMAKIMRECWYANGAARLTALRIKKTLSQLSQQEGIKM

[6] = molecular target: Serine/threonine-protein kinase PAK 4 (Homo sapiens, UniProt O96013); assay: Selectivity interaction (Kinase panel (DSF assay)) EUB0001558a PAK4
Chain of Serine/threonine-protein kinase PAK 4 (O96013 whole entry, looked up): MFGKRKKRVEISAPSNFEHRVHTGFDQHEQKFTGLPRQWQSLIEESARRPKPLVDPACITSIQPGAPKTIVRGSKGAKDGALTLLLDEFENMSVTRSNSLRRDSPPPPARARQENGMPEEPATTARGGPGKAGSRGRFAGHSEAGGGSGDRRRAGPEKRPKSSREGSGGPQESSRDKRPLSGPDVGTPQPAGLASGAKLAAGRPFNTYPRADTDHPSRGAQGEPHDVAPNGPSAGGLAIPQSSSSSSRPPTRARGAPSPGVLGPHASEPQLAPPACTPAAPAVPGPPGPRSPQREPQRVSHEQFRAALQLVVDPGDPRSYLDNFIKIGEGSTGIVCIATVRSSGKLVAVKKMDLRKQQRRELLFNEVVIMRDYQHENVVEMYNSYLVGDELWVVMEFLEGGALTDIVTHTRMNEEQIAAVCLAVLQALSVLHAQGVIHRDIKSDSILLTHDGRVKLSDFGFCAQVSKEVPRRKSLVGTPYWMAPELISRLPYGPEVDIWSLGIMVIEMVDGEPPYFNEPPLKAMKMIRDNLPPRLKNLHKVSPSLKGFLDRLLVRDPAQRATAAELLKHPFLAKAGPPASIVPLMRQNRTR

- % of inhibition [1]: 20%
Compound: Cn1cc(-n2cnc3c(NCc4nc5cc(Cl)c(Cl)cc5[nH]4)nc(N4CCOCC4)nc32)cn1

- % of control [2]: 100%
Compound: CCN(CC)CCCCNc1ncc2cc(-c3cc(OC)cc(OC)c3)c(NC(=O)NC(C)(C)C)nc2n1

Compound: COc1cc(N(C)c2ccnc3ccc(C(F)(F)F)cc23)cc(OC)c1OC
- % binding [3]: 91%

Compound: C=CC(=O)Nc1cc(-n2c(=O)ccc3cnc4ccc(-c5ccc(NS(C)(=O)=O)cc5)cc4c32)ccc1C
- % of control ([4]; at 1 µM): 100%
- % of control ([4]; at 10 µM): 86%

Compound: O[C@H]1CC[C@H](Nc2ncc3nc(Nc4c(F)cc(F)cc4F)n([C@H]4CCOC4)c3n2)CC1
- % of control [5]: 100%

Compound: CC(C)(O)[C@H](F)CN1Cc2cc(NC(=O)c3cnn4cccnc34)c(N3CCOCC3)cc2C1=O
- dTM [6]: 1.1 K
